Results on three compounds are retold here after patent US6448252B1, “Treatment of equine protozoal myeloencephalitis” (IDEXX Pharmaceuticals, Inc., priority 1996, dated 2002).

Some results are limits rather than exact numbers.

The subject of data set [1] is Plasmodium berghei yoelii. The note with it: rodent malaria; cited from earlier work.
The subject of another data set is Sarcocystis neurona. To be noted: EPM in equines; sulfadiazine as the sulfonamide given with pyrimethamine. How it is done: The amounts of each component are based on a liquid suspension having a total volume of about 1 liter. As mentioned above, a useful dosage, e.g., for a 1,000 pound horse infected with Sarcocystis neurona (as evidenced by the presence of the protozoan in a sample from the subject's cerebrospinal fluid) is about 30 mL of the suspension, once a day, given on an empty stomach in the morning.

The conditions of data set [2]: horses, oral, 1 mg pyrimethamine/kg once a day for 10 days; cited from earlier work.

With `Nc1ccc(S(=O)(=O)Nc2ncccn2)cc1` [sulfadiazine], in data set [1], the causal prophylactic activity entry was “causal prophylactic activity”. Besides, the rate of efficacy with Sarcocystis neurona was greater than 70%.
For `COc1cc(NC(C)CCCN)c2ncccc2c1` (stereo not shown) [Primaquine diphosphate], the causal prophylactic activity entry in data set [1] is reported as “causal prophylactic activity”.
Regarding `CCc1nc(N)nc(N)c1-c1ccc(Cl)cc1` [pyrimethamine], in data set [2], the toxicological problem result was “does not present a serious toxicological problem”.
